“And” between values parts separate entries of the source, which are not always exact repeats. Equal values may be shown once. Toxic doses and inconclusive results are not listed. No stated cut-off is given here; in the data, active means T/C of 150% or more; inactive means T/C below 125%.
System: L1210 leukemia ip in BDF1 mice, survival T/C
Test: NCI In Vivo Anticancer Drug Screen. Data for tumor model L1210 Leukemia (intraperitoneal) in B6D2F1 (BDF1) mice
Conditions: endpoint: mean survival time, higher = longer survival
Procedure, shortened: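 In this screen, tumor-bearing mice given compound are compared to those given vehicle, and their survival values are reported as a treated-to-control quotient.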

[1] = dose: 100.0 mg/kg/injection, schedule: Q01DX001 (ip), vehicle: saline
[2] = dose: 200.0 mg/kg/injection, schedule: Q01DX001 (ip), vehicle: saline
[3] = dose: 100.0 mg/kg/injection, schedule: Q01DX009 (ip), vehicle: saline with Tween-80
[4] = dose: 100.0 mg/kg/injection, schedule: Q04DX003 (ip), vehicle: saline with Tween-80
[5] = dose: 200.0 mg/kg/injection, schedule: Q01DX009 (ip), vehicle: saline with Tween-80
[6] = dose: 200.0 mg/kg/injection, schedule: Q04DX003 (ip), vehicle: saline with Tween-80
[7] = dose: 400.0 mg/kg/injection, schedule: Q04DX003 (ip), vehicle: saline with Tween-80
[8] = dose: 100.0 mg/kg/injection, schedule: Q01DX009 (ip), vehicle: Klucel (hydroxypropylcellulose) (HPC)
[9] = dose: 100.0 mg/kg/injection, schedule: Q04DX003 (ip), vehicle: Klucel (hydroxypropylcellulose) (HPC)
[10] = dose: 200.0 mg/kg/injection, schedule: Q04DX003 (ip), vehicle: Klucel (hydroxypropylcellulose) (HPC)
[11] = dose: 50.0 mg/kg/injection, schedule: Q01DX009 (ip), vehicle: Klucel (hydroxypropylcellulose) (HPC)

Measured: T/C

O=NN(CCI)C(=O)NCCI
inactive: dose: 18.75 mg/kg/injection, schedule: Q01DX001 (ip), vehicle: carboxymethylcellulose (CMC) 96 % of control | dose: 37.5 mg/kg/injection, schedule: Q01DX001 (ip), vehicle: carboxymethylcellulose (CMC) 98 % of control | dose: 50.0 mg/kg/injection, schedule: Q01DX001 (ip), vehicle: carboxymethylcellulose (CMC) 96 % of control | dose: 75.0 mg/kg/injection, schedule: Q01DX001 (ip), vehicle: carboxymethylcellulose (CMC) 100 % of control | [1] 103 % of control | [2] 110 % of control

C[S+](C)CCCNC(=O)c1csc(CCNC(=O)c2ccccc2)n1
inactive: dose: 12.5 mg/kg/injection, schedule: Q01DX009 (ip), vehicle: saline with Tween-80 100 % of control | dose: 12.5 mg/kg/injection, schedule: Q04DX003 (ip), vehicle: saline with Tween-80 103 % of control | dose: 25.0 mg/kg/injection, schedule: Q01DX009 (ip), vehicle: saline with Tween-80 97 % of control | dose: 25.0 mg/kg/injection, schedule: Q04DX003 (ip), vehicle: saline with Tween-80 101 % of control | dose: 50.0 mg/kg/injection, schedule: Q01DX009 (ip), vehicle: saline with Tween-80 101 % of control | dose: 50.0 mg/kg/injection, schedule: Q04DX003 (ip), vehicle: saline with Tween-80 97 % of control

COc1ccc(C(=O)Nc2cc(Cl)ccc2OC)cc1
inactive: dose: 100.0 mg/kg/injection, schedule: Q01DX001 (ip), vehicle: other 101 % of control | dose: 100.0 mg/kg/injection, schedule: Q01DX009 (ip), vehicle: other 98 % of control and 102 % of control | dose: 100.0 mg/kg/injection, schedule: Q04DX002 (ip), vehicle: carboxymethylcellulose (CMC) 93 % of control and 103 % of control | dose: 100.0 mg/kg/injection, schedule: Q04DX003 (ip), vehicle: other 97 % of control | dose: 200.0 mg/kg/injection, schedule: Q01DX001 (ip), vehicle: other 93 % of control | dose: 200.0 mg/kg/injection, schedule: Q01DX009 (ip), vehicle: other 100 % of control and 109 % of control | dose: 200.0 mg/kg/injection, schedule: Q04DX002 (ip), vehicle: carboxymethylcellulose (CMC) 96 % of control and 116 % of control | dose: 200.0 mg/kg/injection, schedule: Q04DX003 (ip), vehicle: other 106 % of control | dose: 400.0 mg/kg/injection, schedule: Q01DX001 (ip), vehicle: other 97 % of control | dose: 400.0 mg/kg/injection, schedule: Q01DX009 (ip), vehicle: other 94 % of control and 88 % of control | dose: 400.0 mg/kg/injection, schedule: Q04DX002 (ip), vehicle: carboxymethylcellulose (CMC) 103 % of control and 104 % of control | dose: 400.0 mg/kg/injection, schedule: Q04DX003 (ip), vehicle: other 105 % of control

N#CCCC1CCCCC1=O (configuration not stated)
inactive: dose: 75.0 mg/kg/injection, schedule: Q01DX001 (ip), vehicle: other 97 % of control | [3] 94 % of control | [4] 98 % of control | dose: 150.0 mg/kg/injection, schedule: Q01DX001 (ip), vehicle: other 100 % of control | [5] 96 % of control | [6] 96 % of control | dose: 300.0 mg/kg/injection, schedule: Q01DX001 (ip), vehicle: other 100 % of control | [7] 102 % of control

Nc1ncnc(N)c1[N+](=O)[O-]
inactive: dose: 125.0 mg/kg/injection, schedule: Q01DX Z (ip), vehicle: methylcellulose (MC) 88 % of control

FC(F)(F)C1=NC(=S)C(c2[nH]c(C(F)(F)F)nc2S)=N1
inactive: dose: 25.0 mg/kg/injection, schedule: Q01DX009 (ip), vehicle: water 91 % of control | dose: 50.0 mg/kg/injection, schedule: Q01DX009 (ip), vehicle: water 96 % of control | dose: 100.0 mg/kg/injection, schedule: Q01DX009 (ip), vehicle: water 96 % of control | dose: 200.0 mg/kg/injection, schedule: Q01DX009 (ip), vehicle: water 110 % of control

CC(C)NC(=O)Nc1cccc(O)c1
inactive: [4] 96 % of control | [6] 89 % of control | [7] 89 % of control

Nc1nc(Br)c(Br)nc1N
inactive: [4] 104 % of control | [6] 96 % of control | [7] 93 % of control

CN=C(N)c1ccc(N=C(N)c2ccc(C(N)=Nc3ccc(C(N)=NC)cc3)c(Cl)c2)cc1
inactive: dose: 7.5 mg/kg/injection, schedule: Q01DX Z (oral), vehicle: saline 101 % of control | dose: 15.0 mg/kg/injection, schedule: Q01DX Z (oral), vehicle: saline 98 % of control | dose: 30.0 mg/kg/injection, schedule: Q01DX Z (oral), vehicle: saline 101 % of control | dose: 60.0 mg/kg/injection, schedule: Q01DX Z (oral), vehicle: saline 101 % of control

CCCCCC#CC(=O)OCC
inactive: [3] 100 % of control | [5] 89 % of control

CN(C)c1ccccc1C(=O)NNC(=S)Nc1ccccc1
inactive: [8] 103 % of control | [9] 96 % of control | dose: 200.0 mg/kg/injection, schedule: Q01DX009 (ip), vehicle: Klucel (hydroxypropylcellulose) (HPC) 96 % of control | [10] 93 % of control | dose: 400.0 mg/kg/injection, schedule: Q01DX009 (ip), vehicle: Klucel (hydroxypropylcellulose) (HPC) 93 % of control | dose: 400.0 mg/kg/injection, schedule: Q04DX003 (ip), vehicle: Klucel (hydroxypropylcellulose) (HPC) 94 % of control

c1ccc(C(N2CCCCC2)N2CCCCC2)cc1
inactive: [9] 106 % of control | [10] 103 % of control

Cn1c(=O)c2[nH]c(CCC3CCCC3)nc2n(C)c1=O
inactive: dose: 50.0 mg/kg/injection, schedule: Q01DX001 (ip), vehicle: saline 98 % of control | [1] 96 % of control | [2] 96 % of control | dose: 400.0 mg/kg/injection, schedule: Q01DX001 (ip), vehicle: saline 101 % of control

CC(=O)N(C)c1cc2c3c(c1)CCCN3CCC2
inactive: [11] 104 % of control | [8] 98 % of control

OC1CNCCc2ccccc21 (configuration not stated)
inactive: dose: 25.0 mg/kg/injection, schedule: Q01DX009 (ip), vehicle: Klucel (hydroxypropylcellulose) (HPC) 102 % of control | [11] 103 % of control | [8] 94 % of control | [9] 92 % of control | [10] 88 % of control

COC(OC)c1[nH]c(=S)[nH]c(=O)c1Cc1ccc(Br)cc1
inactive: dose: 100.0 mg/kg/injection, schedule: Q04DX002 (ip), vehicle: Klucel (hydroxypropylcellulose) (HPC) 97 % of control | dose: 200.0 mg/kg/injection, schedule: Q04DX002 (ip), vehicle: Klucel (hydroxypropylcellulose) (HPC) 94 % of control | dose: 400.0 mg/kg/injection, schedule: Q04DX002 (ip), vehicle: Klucel (hydroxypropylcellulose) (HPC) 105 % of control

OC(c1ccccc1)(c1ccccc1)c1nc2ccccc2[nH]1
inactive: dose: 75.0 mg/kg/injection, schedule: Q01DX009 (ip), vehicle: Klucel (hydroxypropylcellulose) (HPC) 97 % of control | dose: 150.0 mg/kg/injection, schedule: Q01DX009 (ip), vehicle: Klucel (hydroxypropylcellulose) (HPC) 87 % of control | dose: 300.0 mg/kg/injection, schedule: Q01DX009 (ip), vehicle: Klucel (hydroxypropylcellulose) (HPC) 104 % of control

NCC1CCCO1 (configuration not stated)
inactive: dose: 25.0 mg/kg/injection, schedule: Q01DX009 (ip), vehicle: saline 98 % of control | dose: 50.0 mg/kg/injection, schedule: Q01DX009 (ip), vehicle: saline 95 % of control | dose: 100.0 mg/kg/injection, schedule: Q01DX009 (ip), vehicle: saline 101 % of control

From PubChem BioAssay AID248 (DTP/NCI, 2004)
